This note sets out measurements from patent US11149008B2, “Sulfamide derivatives and preparation method and use thereof” (HitGen Ltd., priority 2015, dated 2021).

Each structure is given as a SMILES string.

One assay relates to HepG2 cells. Description: Cell growth inhibition measurement (CCK-8), HepG2. It counts as cell-based. The following applies: Homo sapiens, HepG2, 72 h, highest EC50 measured during one or multiple operations, read-out: Inhibition activity against cancer cells, HepG2 (EC50). The source says: (§1) A HepG2 cell strain and an HCT-116 cell strain were purchased from Shanghai Institutes for Biological Sciences; a DMEM high-sugar culture medium and an MEM culture medium were purchased from Hyclone; fetal calf serum was purchased from Gibco; trypsin was purchased from Invitrogen Shanghai; a CCK-8 kit was purchased from Beyotime Institute of Biotechnology; and, the remaining cell culture mediums and other consumables were purchased from Corning China.
(§2) HepG2 cells and HCT-116 cells in the logarithmic growth phase were digested by trypsin. After the counting of uniform cell suspension, the cell density was adjusted as 1500 cells/well by a culture medium containing 10% serum. The cells were re-inoculated to a 96-well cell culture plate, and cultured to a volume of 200 μL at 37° C. in an incubator containing 5% CO2. The cells could be tested after being cultured for 24 h.
(§3) The cells cultured for 24 h were taken out from the incubator. The culture liquid in the well plate was sucked out, and 200 μL of compound solution prepared in the culture medium containing 10% fetal calf serum was added in each well. Five parallel mediums were provided for each concentration, and a DMSO culture medium was used as negative control. The culture mediums were cultured for 72 h at 37° C. in an incubator containing 5% CO2, and CCK-8 detection was performed.
(§4) A serum-free culture medium and CCK-8 solution were prepared, and CCK-8 working solution was prepared at a ratio of 10:1 (this process should be performed in dark place).
(§5) The cells cultured for 72 h were taken out from the incubator. The culture liquid in the well plate was sucked out, and 120 μL of the CCK-8 working solution was added in each well. A well plate without cells was also added with 120 μL of the CCK-8 working solution to serve as blank control. The well plates were cultured for 1 h at 37° C. in an incubator containing 5% CO2 (this process should be performed in dark place).
(§6) The well plates were taken out from the incubator, 100 μL of solution in each well was sucked out and added in a new 96-well plate, and the absorbance was measured at 450 nm (this process should be performed in dark place).
(§7) where Tx is the absorbance of the CCK-8 after the compound acts for 72 h;
(§8) C is the absorbance of the CCK-8 after the negative control wells are cultured for 72 h; and
(§9) B is the absorbance of the CCK-8 in the blank control wells.
(§10) The test results of the compounds prepared according to the embodiments during the measurement are shown in Table 3, wherein the measured highest EC50 of the compounds during one operation or multiple operations is classified according to the following description: […]

The target of another assay is HDAC 1 (Homo sapiens, UniProt Q13547). Description: Enzyme activity detection of histone deacetylase 1 (fluorogenic substrate deacetylation). Format: biochemical. The following applies: 0.28 ng/μL HDAC 1, 10 μM substrate; IC50 class. The source says: During the deacetylation detection of a substrate, the HDAC inhibition activity of the compound of the present invention was detected.
C: Enzyme Activity Detection of Histone Deacetylase 1
Acetyl on the substrate was removed by the HDAC 1, so that the substrate was activated, and the developing liquid added subsequently could act on the substrate to release the fluorescent group. The size of the fluorescence signal reflected the activity of the HDAC 1. The IC50 detection method for this enzyme was disclosed in Chuping Xu, Elisabetta Soragni Improved Histone Deacetylase Inhibitors as Therapeutics for the Neurdegenerative Disease Friedreich's Ataxia: A New Synthetic Route. The total reaction system (100 μL/well) contained 0.28 ng/μL of HDAC 1, 10 μM of the substrate and the compound in different concentrations. The fluorescence signal was detected online at Ex/Em=360/460. The inhibition effect of the compound was determined from the obtained data, a concentration response curve was obtained by using the inhibition effect and the concentration of the compound, and the value of IC50 was fitted according to a four-parameter model.
The activities of the compounds prepared in the embodiments against the histone deacetylases 1, 3 and 6 (i.e., HDAC 1, HDAC 3 and HDAC 6) were detected by the above methods, and the test results were shown in Table 2, where the measurements of IC50 of the compounds were classified according to the following description: […]

The subject of the next assay is HCT-116 cells. Description: Cell growth inhibition measurement (CCK-8), HCT-116. Format: cell-based. The following applies: Homo sapiens, HCT-116, 72 h, highest EC50 measured during one or multiple operations, read-out: Inhibition activity against cancer cells, HCT-116 (EC50).
Description: as §1, §2, §3, §4, §5, §6, §7, §8, §9, §10

Chain of HDAC 1 (Q13547 whole entry, species assumed): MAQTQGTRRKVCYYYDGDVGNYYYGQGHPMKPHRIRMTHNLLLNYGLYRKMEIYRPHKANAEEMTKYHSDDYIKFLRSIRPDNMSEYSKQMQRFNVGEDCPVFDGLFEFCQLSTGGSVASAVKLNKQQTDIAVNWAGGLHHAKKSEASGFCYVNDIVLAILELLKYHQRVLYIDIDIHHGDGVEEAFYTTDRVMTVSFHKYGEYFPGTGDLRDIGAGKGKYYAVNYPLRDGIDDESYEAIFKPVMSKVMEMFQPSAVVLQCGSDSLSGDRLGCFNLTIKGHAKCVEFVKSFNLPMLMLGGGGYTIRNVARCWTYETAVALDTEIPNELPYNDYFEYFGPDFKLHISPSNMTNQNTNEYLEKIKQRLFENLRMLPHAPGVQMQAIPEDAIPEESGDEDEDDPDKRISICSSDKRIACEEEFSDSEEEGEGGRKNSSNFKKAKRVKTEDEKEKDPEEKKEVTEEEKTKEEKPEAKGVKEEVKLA

For orientation: EC50 means the concentration at which the effect is half-maximal. On to `CN1CCN(c2ccc(-c3ccc(S(=O)(=O)N4CC=C(C(=O)NO)CC4)cc3)cc2F)CC1` [Compound 3, N-hydroxyl-1-((3′-fluoro-4′-(4-methylpiperazine-1-yl)-[1,1′-biphenyl]-4-yl)sulfonyl)-1,2,3,6-tetrahydropyridine-4-formamide], for which the EC50 in the assay on HepG2 cells was under 100 nM.
The same measure, in the same setting: the value for `COCCN1CCN(c2ccc(-c3ccc(S(=O)(=O)N4CC=C(C(=O)NO)CC4)cc3)cc2)CC1` [Compound 4, N-hydroxyl-1-((4′-(4-(2-methoxyethyl)piperazine-1-yl)-[1,1′-biphenyl]-4-yl)sulfonyl)-1,2,3,6-tetrahydropyridine-4-formamide] was under 100 nM; that for `CN1CCN(c2ccc(-c3ccc(S(=O)(=O)N4CC=C(C(=O)NO)CC4)cc3)cn2)CC1` [Compound 5] was under 100 nM.
In general, IC50 refers to the concentration needed to halve the response being measured. High values mean weaker potency in that assay, low ones greater potency in that assay. With `CCN1CCN(c2ccc(-c3ccc(S(=O)(=O)N4CC=C(C(=O)NO)CC4)cc3)cc2)CC1` [Compound 6], the half-maximal inhibitory concentration (IC50) on HDAC 1 was under 100 nM. The concentration for a half-maximal effect (EC50) in the assay on HepG2 cells and in the assay on HCT-116 cells was under 100 nM throughout.
`CN1CCN(c2ccc(-c3ccc(S(=O)(=O)N4CC=C(C(=O)NO)CC4)cc3F)cc2)CC1` [Compound 7, N-hydroxyl-1-((2-fluoro-4′-(4-methylpiperazine-1-yl)-[1,1′-biphenyl]-4-yl)sulfonyl)-1,2,3,6-tetrahydropyridine-4-formamide]: the EC50 in the assay on HepG2 cells and in the assay with HCT-116 cells was under 100 nM each time.
`CN(C)Cc1ccc(-c2ccc(S(=O)(=O)N3CC=C(C(=O)NO)CC3)cc2)cc1` [Compound 8, N-hydroxyl-1((4′-((dimethylamino)methyl)-[1, 1′-biphenyl]-4-yl)sulfonyl)-1,2,3,6-tetrahydropyridine-4-formamide] registered an IC50 against HDAC 1 of under 100 nM. Further, the EC50 with HepG2 cells and in the assay with HCT-116 cells was under 100 nM in each case.
`CC1CN(c2ccc(-c3ccc(S(=O)(=O)N4CC=C(C(=O)NO)CC4)cc3)cc2)CCN1C` (stereo not shown) [Compound 9, N-hydroxyl-1-((4′-(3,4′-dimethylpiperazine-1-yl)-[1,1′-biphenyl]-4-yl)sulfonyl)-1,2,3,6-tetrahydropyridine-4-formamide]: in the assay with HepG2 cells, the concentration for a half-maximal effect (EC50) was under 100 nM.
For the compound `O=C(NO)C1=CCN(S(=O)(=O)c2ccc(-c3ccc(N4CCNCC4)cc3)cc2)CC1` [Compound 10, N-hydroxyl-1-((4′-(piperazine-1-yl)-[1,1′-biphenyl]-4-yl)sulfonyl)-1,2,3,6-tetrahydropyridine-4-formamide], in the assay on HepG2 cells, the EC50 is under 100 nM.
Same read-out and setting: the value for `O=C(NO)C1=CCN(S(=O)(=O)c2ccc(-c3ccc(N4CCN(C5CC5)CC4)cc3)cc2)CC1` [Compound 11, N-hydroxyl-1-((4′-(4-cyclopropylpiperazine-1-yl)-[1,1′-biphenyl]-4-yl)sulfonyl)-1,2,3,6-tetrahydropyridine-4-formamide] was under 100 nM.
On HDAC 1, `CN(C)CCc1ccc(-c2ccc(S(=O)(=O)N3CC=C(C(=O)NO)CC3)cc2)cc1` [Compound 12, N-hydroxyl-1-((4′-(2-(dimethylamino)ethyl)-[1, 1′-biphenyl]-4-yl)sulfonyl)-1,2,3,6-tetrahydropyridine-4-formamide] had a 50% inhibitory concentration (IC50) of under 100 nM. In addition, the 50% effective concentration (EC50) in the assay on HepG2 cells and in the assay on HCT-116 cells was under 100 nM throughout.
On to `CN1CCN(c2ccc(-c3ccc(S(=O)(=O)N4CC=C(C(=O)NO)CC4)cn3)cc2)CC1` [Compound 13, N-hydroxyl-1-((6-(4-(4-methylpiperazine-1-yl)phenyl)pyridine-3-yl)sulfonyl)-1,2,3,6-tetrahydropyridine-4-formamide], for which, at HDAC 1, the IC50 was under 100 nM. For the same compound, the EC50 in the assay on HepG2 cells and in the assay on HCT-116 cells was under 100 nM throughout.
`CN1CCC(n2cc(-c3ccc(S(=O)(=O)N4CC=C(C(=O)NO)CC4)cc3)cn2)CC1` [Compound 14, N-hydroxyl-1-((4-(1-(1-methylpiperidine-4-yl)-1H-pyrazol-4-yl)phenyl)sulfonyl)-1,2,3,6-tetrahydropyridine-4-formamide]: the EC50 with HepG2 cells was over 100 nM.
In turn, `CN1CCN(c2ccc(-c3ccc(S(=O)(=O)N4C=CC(C(=O)NO)CC4)cc3)cc2)CC1` (stereo not shown) [Compound 15, N-hydroxyl-1-((4′-(4-methylpiperazine-1-yl)-[1, 1′-biphenyl]-4-yl)sulfonyl)-1,2,3,4-tetrahydropyridine-4-formamide] registered a concentration for half-maximal inhibition (IC50) at HDAC 1 of under 100 nM. Besides, the EC50 with HepG2 cells and with HCT-116 cells was under 100 nM in each case.
Take `COCCN1CCN(c2ccc(-c3ccc(S(=O)(=O)N4CC=C(C(=O)NO)CC4)cc3)cn2)CC1` [Compound 17, N-hydroxyl-1-((4-(6-(4-(2-methoxyethyl)piperazine-1-yl)pyridine-3-yl)phenyl)sulfonyl)-1,2,3,6-tetrahydropyridine-4-formamide]: the EC50 with HepG2 cells is over 100 nM.
`CCN(CC)Cc1ccc(-c2ccc(S(=O)(=O)N3CC=C(C(=O)NO)CC3)cc2)cc1` [Compound 18, N-hydroxyl-1-((4′-((diethylamino)methyl)-[1,1′-biphenyl]-4-yl)sulfonyl)-1,2,3,6-tetrahydropyridine-4-formamide] returned an IC50 at HDAC 1 of under 100 nM. The EC50 in the assay with HepG2 cells and in the assay with HCT-116 cells was under 100 nM each time.
Consider `CN1CCN(Cc2ccc(-c3ccc(S(=O)(=O)N4CC=C(C(=O)NO)CC4)cc3)cc2)CC1` [Compound 20, N-hydroxyl-1-((4′-((4-methylpiperazine-1-yl)methyl)-[1,1′-biphenyl]-4-yl)sulfonyl)-1,2,3,6-tetrahydropyridazole-4-formamide], for which the EC50 in the assay on HepG2 cells and in the assay with HCT-116 cells was under 100 nM throughout.
Regarding `O=C(NO)C1=CCN(S(=O)(=O)c2ccc(-c3ccc(CN4CCOCC4)cc3)cc2)CC1` [Compound 21, N-hydroxyl-1-((4′-(morpholinylmethyl)-[1,1′-biphenyl]-4-yl)sulfonyl)-1,2,3,6-tetrahydropyridine-4-formamide], the EC50 in the assay on HepG2 cells and in the assay on HCT-116 cells was under 100 nM each time.
With `CN(C)CCNC(=O)c1ccc(-c2ccc(S(=O)(=O)N3CC=C(C(=O)NO)CC3)cc2)cc1` [Compound 22, N-hydroxyl-1-((4′-((2-(dimethylamino)ethyl)aminoformyl)-[1,1′-biphenyl]-4-yl)sulfonyl)-1,2,3,6-tetrahydropyridine-4-formamide], the EC50 with HepG2 cells was over 100 nM.
With `CN1CCCN(c2ccc(-c3ccc(S(=O)(=O)N4CC=C(C(=O)NO)CC4)cc3)cn2)CC1` [Compound 24, N-hydroxyl-1-((4-(6-(4-methyl-1,4-diazaheptane-1-yl)pyridine-3-yl)phenyl)sulfonyl)-1,2,3,6-tetrahydropyridine-4-formamide], the half-maximal effective concentration (EC50) in the assay on HepG2 cells is under 100 nM.
